According to EP0302626A2, “Insecticidal compounds” (IMPERIAL CHEMICAL INDUSTRIES PLC, priority 1987, dated 1989):
“And” between values parts separate entries of the source, which are not always exact repeats. Equal entries are not always repeated. Where two headings read alike, the source gives them in different places. Marks after values point to notes of the source that are not given here.

Columns and labels:
Assay type in all cases: in vivo
[1] = system: Blattella germanica (adult males); assay: Blattella germanica knockdown test; settings: for KT₅₀: time taken to knockdown 50% of test insects; for KT₅₀ / KT₉₀: Tetramethrin: mean of 3 assessments; for KT₉₀: time taken to knockdown 90% of test insects; for mortality at 250 ppm / pest or weed control at 250 ppm: Blattella germanica; for mortality at 250 ppm: 48 h; for mortality at 250 ppm / % MORTALITY 48 hrs: insects held at 25°C and 65% relative humidity for 48 hours; for mortality at 250 ppm / pest or weed control at 250 ppm / % KNOCKDOWN OBSERVED 15 min / % KNOCKDOWN OBSERVED 20 min / % MORTALITY 48 hrs: tests 1 and 2 are repeats; for pest or weed control at 250 ppm: topical, Tetramethrin: mean of 27 observations; for pest or weed control at 250 ppm / % KNOCKDOWN OBSERVED 15 min / % KNOCKDOWN OBSERVED 20 min: 250 ppm in kerosene, 1 cm3 sprayed onto 10 adult males; for % MORTALITY 48 hrs: 2880 min
Experimental: The test compound was dissolved in acetone (2 cm³) and the solution diluted to a concentration of 250 ppm with kerosene. 1 cm³ Of this preparation was sprayed onto 10 Blattella germanica (adult males) held in a netted plastic pot in a Burkhard potter Tower. Assessment of knockdown was performed at intervals of 5 minutes up to a total of 20 minutes. On removal from the Burkhard Potter Tower, the insects were held at 25°C and 65% relative humidity for 48 hours, and an assessment of mortality performed. Each test was repeated.
In some tests, additional knockdown assessment was performed at intervals of 1, 2, 3 and 4 minutes, and KT₅₀ and KT₉₀ values determined (the time taken, in minutes, to knockdown 50% and 90% respectively of test insects).

[2] = system: Musca domestica (adult females); assay: Musca domestica knockdown test; settings: 1 cm3 of 30 ppm solution in acetone, Kearns and March chamber, 20 adult females, observed over 10 minutes; average of 2 replicates (* single replicate, ** average of 7 tests)
Experimental: 1 cm³ Of a 30 ppm solution of the test chemical in acetone was sprayed into a Kearns and March chamber containing 20 Musca domestica (adult females). Knockdown was observed over a period of 10 minutes and KT₅₀ and KT₉₀ values (the time taken for 50% and 90% of the insects to be knocked down) were calculated from the observations. The results given in Table V represent average KT values of 2 replicates except where otherwise stated.

[3] = system: Tetranychus urticae (spider mites - adult); assay: insecticidal mortality test, contact, French bean leaf; settings: Tetranychus urticae, 72 h, read-out: grading of mortality, Tua, 100 ppm, 3 days
Experimental: (§1) The activity of the Product was determined using a variety of insect pests. The Product was used in the form of liquid preparations containing 500, 250 or 100 parts per million (ppm) by weight of the Product. The preparations were made by dissolving the Product in acetone and diluting the solutions with water containing 0.01% by weight of a wetting agent sold under the trade name "LlSSAPOL" NX until the liquid preparations contained the required concentration of the Product. "Lissapol" is a Registered Trade Mark.
(§2) The test procedure adopted with regard to each pest was basically the same and comprised supporting a number of the pests on a medium which was usually a host plant or a foodstuff on which the pests feed, and treating either or both the pests and the medium with the preparations. The mortality of the pests was then assessed at periods usually varying from one to three days after the treatment.
(§3) The results of the tests are given in Table III for each of the Products, at the rate in parts per million given in the second column as a grading of mortality designated as A, B or C wherein A indicates 80-100% mortality, B indicates 50-79% mortality and C indicates less than 50% mortality.
(§4) In Table 111 the pest organism used is designated by a letter code and the pests species, the support medium or food, and the type and duration of test is given in Table II.

[4] = system: Musca domestica (houseflies - adults); assay: insecticidal mortality test, contact, cotton wool/sugar; settings: 72 h, read-out: grading of mortality, MD
Experimental: as §1, §2, §3, §4

Myzus persicae (aphids) = assay: insecticidal mortality test, contact, Chinese Cabbage leaf; settings: 72 h, read-out: grading of mortality, MP
Experimental: as §1, §2, §3, §4

[5] = system: Nephotettix cincticeps (green leaf hopper - nymphs); assay: insecticidal mortality test, contact, rice plant; settings: 48 h, 100 ppm, contact, rice plant, test duration of 2 days (footnote +), read-out: grading of mortality, NC
Experimental: as §1, §2, §3, §4

[6] = system: Diabrotica balteata (rootworm larvae); assay: insecticidal mortality test, residual, filter paper/maize seed; settings: 48 h, read-out: grading of mortality, DB
Experimental: as §1, §2, §3, §4

[7] = system: Spodoptera exigua (lesser army worm - larvae); assay: insecticidal mortality test, residual, cotton leaf; settings: 48 h, read-out: grading of mortality, SP
Experimental: as §1, §2, §3, §4

[8] = system: Heliothis virescens (tobacco budworm - larvae); assay: insecticidal mortality test, residual, cotton leaf; settings: 48 h, 100 ppm, residual, cotton leaf, test duration of 2 days (footnote +), read-out: grading of mortality, HV
Experimental: as §1, §2, §3, §4

[9] = system: Blattella germanica (cockroach nymphs); assay: insecticidal mortality test, residual, plastic pot; settings: 72 h, read-out: grading of mortality, BG
Experimental: as §1, §2, §3, §4

[10] = 5 min, 5 min, read-out: % KNOCKDOWN OBSERVED 5 min
[11] = 10 min, 10 min, read-out: % KNOCKDOWN OBSERVED 10 min
[12] = 250 ppm spray, read-out: % MORTALITY 48 hrs

| SMILES | KT₅₀ ([1]; 250 ppm spray) | KT₉₀ ([1]; 250 ppm spray) | mortality at 250 ppm ([1]; read-out: % MORTALITY 48 hrs, 250 ppm spray) [%] | pest or weed control at 250 ppm [1, 10] [%] | pest or weed control at 250 ppm [1, 11] [%] | KT₅₀ [2] | KT₉₀ [2] | mortality at 100 ppm [3] [%] | mortality at 100 ppm [4] [%] | % KNOCKDOWN OBSERVED 15 min [1] [%] | % KNOCKDOWN OBSERVED 20 min [1] [%] | mortality at 250 ppm [1, 12] [%] | mortality at 100 ppm (Myzus persicae (aphids)) [%] | mortality at 100 ppm [5] [%] | mortality at 100 ppm [6] [%] | mortality at 100 ppm [7] [%] | mortality at 100 ppm [8] [%] | mortality at 100 ppm [9] [%] | % MORTALITY 48 hrs ([1]; 250 ppm spray) |
| --- | --- | --- | --- | --- | --- | --- | --- | --- | --- | --- | --- | --- | --- | --- | --- | --- | --- | --- | --- |
| CC(C)=CC1C(C(=O)OCN2C(=O)C3=C(CCCC3)C2=O)C1(C)C (stereo not shown) [Tetramethrin, reference compound] | 1.7** mins | 3.2** mins | 50 | 80 | 100 | 4.0** mins | 7.5** mins | – | – | – | – | – | – | – | – | – | – | – | – |
| CC(=O)SCc1c(F)c(F)c(COC(=O)[C@@H]2[C@H](/C=C(\Cl)C(F)(F)F)C2(C)C)c(F)c1F (racemic) [Product XXVI, 4-(acetylthiomethyl)-2,3,5,6-tetrafluorobenzyl (1RS, cis)-3-(Z-2-chloro-3,3,3-trifluoroprop-1-en-1-yl)-2,2-dimethylcyclopropanecarboxylate] | – | – | – | – | – | – | – | 80 to 100 | 80 to 100 | 60 | 100 | 100 | 80 to 100 | 80 to 100 | 80 to 100 | 80 to 100 | 80 to 100 | 80 to 100 | – |
| CC(=O)SCc1c(F)c(F)c(COC(=O)[C@@H]2[C@@H](/C=C(\Cl)C(F)(F)F)C2(C)C)c(F)c1F (racemic) [Product XXVII, 4-(acetylthiomethyl)-2,3,5,6-tetrafluorobenzyl (1RS, trans)-3-(Z-2-chloro-3,3,3-trifluoroprop-1-en-1-yl)-2,2-dimethylcyclopropanecarboxylate] | – | – | – | – | – | – | – | 80 to 100 | 80 to 100 | 40 | 40 | 100 | 80 to 100 | 80 to 100 | 80 to 100 | 80 to 100 | 80 to 100 | < 50 | 80% |
| CC(C)=NOCc1c(F)c(F)c(COC(=O)[C@@H]2[C@@H](/C=C(\Cl)C(F)(F)F)C2(C)C)c(F)c1F (racemic) [Product XXIII, 4-[(prop-2-ylidenamino)oxymethyl]-2,3,5,6-tetrafluorobenzyl (1RS, trans)-3-(Z-2-chloro-3,3,3-trifluoroprop-1-en-1-yl)-2,2-dimethylcyclopropanecarboxylate] | – | 9.3 min | – | – | – | – | – | 80 to 100 | < 50 | 10 | 10 | 100 | 80 to 100 | 80 to 100 | 80 to 100 | 80 to 100 | < 50 | < 50 | – |
| CC1(C)C(C=C(Cl)C(F)(F)F)C1C(=O)OCc1c(F)c(F)c(CCC#N)c(F)c1F (racemic) [Product XXI, 4-(2-cyanoethyl)-2,3,5,6-tetrafluorobenzyl (1RS, cis)-3-(Z-2-chloro-3,3,3-trifluoroprop-1-en-1-yl)-2,2-dimethylcyclopropanecarboxylate] | 4.2 min and 3.6 min | 8.8 min and 8.2 min | – | 60 | 100 | – | – | < 50 | < 50 | – | – | – | 80 to 100 | 80 to 100 | < 50 | < 50 | 80 to 100 | < 50 | 60% and 100% |
